Measurements: patent US8026281B2, “Treating metabolic syndrome with fenofibrate” (Lupin Atlantis Holdings, S.A., priority 2004, dated 2011)
Each block holds one compound with its values, some of them ahead of it.

What was measured:
[1] = test system: subjects with hypertriglyceridemia and metabolic syndrome; assay: Phase III placebo-controlled study of 130 mg fenofibrate, with and without food: prevalence of metabolic syndrome; conditions: for prevalence of metabolic syndrome at end of treatment: 130 mg daily
Experimental: Objectives: A primary outcome variable was the difference in the prevalence of metabolic syndrome between the group treated with 130 mg of fenofibrate (“the treatment group”) versus the placebo group (“the placebo”). A related outcome variable included the effect of food on fenofibrate efficacy.
Methodology: This was a multicenter, prospective, double-blind, double-dummy, randomized, placebo-controlled, parallel group study of a micronized formulation of fenofibrate at a single daily dose of 130 mg. Subjects took prescription or over-the-counter lipid lowering medications or dietary supplements known to alter lipid levels or other aspects of the lipid profile until week 6 (visit 1). At week 6, subjects were instructed to follow the therapeutic lifestyle changes diet, in accordance with the Food and Drug Administration guidelines for clinical evaluations of lipid-altering agents.
Also at week 6, qualifying subjects were stratified by triglyceride level and randomized in a double-blind fashion to one of three groups, the first two of which constituted the treatment group and the third group constituted the placebo: A) 1 fenofibrate capsule (130 mg) with food and 1 placebo capsule without food; B) 1 fenofibrate capsule (130 mg) without food (three hours after a meal) and 1 placebo capsule with food; and C) placebo, 1 placebo capsule with food and 1 placebo capsule without food. […] One capsule was taken with the subjects' evening meal and a second capsule was taken three hours post-meal. The first dosing occurred on the first evening after visit 4. A lipid profile was measured at every visit, and other measurements were taken regularly throughout the study.
Treatment duration was eight weeks.

[2] = cited from earlier work
[3] = test system: high-risk patients; conditions: particularly those with diabetes and insulin resistance; cited from earlier work

food effect ([1]; fenofibrate formulation 130 mg, with food versus without food): does not exhibit a food effect
SMILES: CC(C)OC(=O)C(C)(C)Oc1ccc(C(=O)c2ccc(Cl)cc2)cc1 [fenofibrate, 2-[4-(4-chlorobenzoyl)phenoxy]-2-methyl-propanoic acid, 1-methylethyl ester]
safety and efficacy conclusion ([1]; fenofibrate formulation 130 mg, eight weeks): safe and efficacious | prevalence of metabolic syndrome at end of treatment ([1]; fenofibrate with food group, eight weeks, reduced from 96.3% prevalence): 74.1% | prevalence of metabolic syndrome at end of treatment ([1]; fenofibrate without food group (three hours after a meal), eight weeks, reduced from 97.6% prevalence): 66.7% | decrease in number of subjects having three or more metabolic syndrome criteria ([1]; treatment group (fenofibrate 130 mg once daily, with or without food), eight-week treatment, placebo 12%, chi-square p-value=0.0416): more than 25% | prevalence of metabolic syndrome at end of treatment ([1]; whole treatment group, eight weeks, reduced from 96.9% prevalence, placebo 98.0% to 86.0%): 70.8%

SMILES: CC(C)(Oc1ccc(C(=O)c2ccc(Cl)cc2)cc1)C(=O)O [fenofibric acid]
mean concentration in the plasma ([2]; dose of 300 mg per day): ~15 µg/mL | time of maximum concentration in the plasma after ingestion of the medicinal product ([2]; on average): five | half-life for elimination from the plasma ([2]; plasma): ~20 h

SMILES: Cc1ccc(C)c(OCCCC(C)(C)C(=O)O)c1 [gemfibrozil]
risk for major cardiovascular events [3]: reduced the risk for major cardiovascular events
